Where a SMILES comes first, the peptide text is derived from it. Where no end group is shown, it is not given here. [ ]: non-standard residue; d: D form. The star is where a group is joined. Orn = NCCC[C@H](N)C(=O)O; Hexanoyl = CCCCCC(=O)*; Aib = CC(C)(N)C(=O)O
Tests used:
human VPAC1 = molecular target: T1, human VPAC1 (Homo sapiens, UniProt P32241); test: Filter binding assay, membranes of cells transiently transfected with human VPAC1, 125I-labeled VIP tracer (Table 2); design: expressed in transfected cells; settings: read-out: Human VPAC1 Receptor Binding
T1 sequence (P32241 31-457): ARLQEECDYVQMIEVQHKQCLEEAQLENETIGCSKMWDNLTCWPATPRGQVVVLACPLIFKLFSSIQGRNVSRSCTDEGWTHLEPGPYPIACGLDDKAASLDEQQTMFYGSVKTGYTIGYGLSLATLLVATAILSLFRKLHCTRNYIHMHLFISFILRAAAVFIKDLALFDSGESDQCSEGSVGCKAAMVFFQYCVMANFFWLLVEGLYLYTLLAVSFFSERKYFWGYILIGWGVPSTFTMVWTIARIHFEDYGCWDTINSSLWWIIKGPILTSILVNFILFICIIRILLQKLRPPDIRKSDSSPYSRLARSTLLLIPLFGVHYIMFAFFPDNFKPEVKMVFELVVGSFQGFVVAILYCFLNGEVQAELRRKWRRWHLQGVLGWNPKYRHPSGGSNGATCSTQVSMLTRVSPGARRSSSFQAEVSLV
Outline: (§1)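 Scintillation counting of filter-retained radioligand gave the read-out. Compounds competed with the labelled tracer (about 40000 cpm) for 2.5 μg membranes during 1 hour of shaking in HEPES pH 7.4 buffer containing 0.5% BSA.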

human VPAC2 [1] = molecular target: T2, human VPAC2 (Homo sapiens, UniProt P41587); test: Alpha screen cAMP in vitro potency, human VPAC2 receptor; format: cell-based; settings: cAMP generation; single result from two analyses performed in a single run; read-out: Human VPAC2 Receptor: Alpha Screen EC50
T2 construct: expressed in transfected cells
T2 sequence (P41587 24-438): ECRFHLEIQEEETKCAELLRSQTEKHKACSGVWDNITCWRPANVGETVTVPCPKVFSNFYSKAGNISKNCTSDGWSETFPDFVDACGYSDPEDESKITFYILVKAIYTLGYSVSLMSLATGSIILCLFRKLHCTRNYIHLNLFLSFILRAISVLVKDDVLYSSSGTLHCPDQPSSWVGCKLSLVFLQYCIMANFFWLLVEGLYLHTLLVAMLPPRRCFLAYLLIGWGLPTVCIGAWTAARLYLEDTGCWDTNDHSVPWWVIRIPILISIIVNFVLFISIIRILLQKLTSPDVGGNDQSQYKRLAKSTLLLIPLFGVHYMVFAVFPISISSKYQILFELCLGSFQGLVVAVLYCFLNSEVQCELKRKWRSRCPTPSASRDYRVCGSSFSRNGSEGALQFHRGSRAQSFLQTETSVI
Outline: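 Dissociated cells, 50,000 per point in stimulation buffer, were incubated with stimuli and AlphaScreen acceptor beads for 60 min.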

human VPAC2 [2] = molecular target: T2, human VPAC2; test: Filter binding assay, membranes of stable VPAC2 cell line, 125I-labeled VIP tracer (Table 2); settings: read-out: Human VPAC2 Receptor Binding
Outline: as §1

[3] = Rat serum stability studies (remaining active peptide by DiscoveRx cAMP on CHO-VPAC2 cells); format: in vitro ADME
Outline: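 Rat serum, 18 h: +aprotinin aliquot at 4° C, no-aprotinin aliquot at 37° C. Then 30 min RT step, supernatant removed, 1 h shaking at 300 rpm. DiscoveRx cAMP kit on CHO-VPAC2; EC50 from cAMP data vs standards.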

human PAC1 = molecular target: T3, human PAC1 (Homo sapiens, UniProt P41586); test: Filter binding assay, membranes of cells transiently transfected with human PAC1, 125I-labeled PACAP-27 tracer (Table 2); design: expressed in transfected cells; settings: read-out: Human PAC1 Receptor Binding
T3 sequence (P41586 21-468): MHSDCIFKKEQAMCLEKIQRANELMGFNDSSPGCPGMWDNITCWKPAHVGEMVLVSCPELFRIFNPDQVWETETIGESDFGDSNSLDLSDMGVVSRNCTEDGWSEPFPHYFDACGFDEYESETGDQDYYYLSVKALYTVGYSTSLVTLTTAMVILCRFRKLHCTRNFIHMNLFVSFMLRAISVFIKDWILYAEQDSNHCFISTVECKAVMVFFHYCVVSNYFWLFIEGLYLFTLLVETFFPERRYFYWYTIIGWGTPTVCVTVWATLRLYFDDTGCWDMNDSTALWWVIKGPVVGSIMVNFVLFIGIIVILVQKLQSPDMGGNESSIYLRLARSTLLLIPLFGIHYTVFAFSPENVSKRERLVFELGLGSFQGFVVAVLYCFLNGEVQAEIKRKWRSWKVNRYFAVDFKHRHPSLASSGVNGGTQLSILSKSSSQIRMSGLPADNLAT
Outline: as §1

Compound: CCCCCC(=O)N[C@@H](Cc1c[nH]cn1)C(=O)N[C@@H](CO)C(=O)N[C@@H](CC(=O)O)C(=O)N[C@@H](C)C(=O)N[C@H](C(=O)N[C@@H](Cc1ccccc1)C(=O)N[C@H](C(=O)N[C@@H](CC(=O)O)C(=O)N[C@@H](CC(N)=O)C(=O)N[C@@H](Cc1ccc(O)cc1)C(=O)N[C@H](C(=O)N[C@@H](CCCNC(=N)N)C(=O)N[C@@H](CC(C)C)C(=O)N[C@@H](CCCNC(=N)N)C(=O)NC(C)(C)C(=O)N[C@@H](CCC(N)=O)C(=O)N[C@H](C(=O)N[C@@H](C)C(=O)N[C@@H](C)C(=O)NC(C)(C)C(=O)N[C@@H](CCCCN)C(=O)N[C@@H](Cc1ccc(O)cc1)C(=O)N[C@@H](CC(C)C)C(=O)N[C@@H](CCC(N)=O)C(=O)N[C@@H](CO)C(=O)N[C@H](C(=O)N[C@@H](CCCCN)C(=O)N[C@@H](CCC(N)=O)C(=O)N[C@@H](CCCCN)C(=O)NCC(=O)NCC(=O)N1CCC[C@H]1C(=O)N[C@@H](CO)C(=O)N[C@@H](CO)C(=O)NCC(=O)N[C@@H](C)C(=O)N1CCC[C@H]1C(=O)N1CCC[C@H]1C(=O)N1CCC[C@H]1C(=O)N[C@@H](CO)C(=O)O)[C@@H](C)CC)C(C)C)[C@@H](C)O)[C@@H](C)O)C(C)C [Agonist P294] (Hexanoyl-HSDAVFTDNYTRLR[Aib]QVAA[Aib]KYLQSIKQKGGPSSGAPPPS-OH; C-terminus assumed)
- IC50 (human VPAC1): > 3000 nM
- EC50 (human VPAC2 [1]): 0.24 nM
- IC50 (human VPAC2 [2]): 0.45 nM
- Rat Serum Stability (estimated purity in % after 18 hours) [3]: 24.25%
- IC50 (human PAC1): > 25000 nM

Compound: Hexanoyl-HSDAVFTDNYTRLQ[Aib]QVAA[Aib]KYLQSIKNKRYGGPSSGAPPPS [Agonist P302]
- IC50 (human VPAC1): > 3000 nM
- EC50 (human VPAC2 [1]): 0.45 nM
- IC50 (human VPAC2 [2]): 1.62 nM
- Rat Serum Stability (estimated purity in % after 18 hours) [3]: 21.43%
- IC50 (human PAC1): > 25000 nM

Compound: Hexanoyl-HSDAVFTDNYTRLRKQVAAKKYFQSIKNKRYGGPSSGAPPPS [Agonist P231]
- IC50 (human VPAC1): 458 nM
- EC50 (human VPAC2 [1]): 0.26 nM
- IC50 (human VPAC2 [2]): 0.55 nM
- Rat Serum Stability (estimated purity in % after 18 hours) [3]: 0.57%
- IC50 (human PAC1): 300 nM

Compound: Hexanoyl-HSDAVFTDNYTRLRKQVAALKYLQSIKNKRYGGPSSGAPPPS [Agonist P151]
- IC50 (human VPAC1): 204 nM
- EC50 (human VPAC2 [1]): 0.07 nM
- IC50 (human VPAC2 [2]): 0.72 nM
- Rat Serum Stability (estimated purity in % after 18 hours) [3]: 0.35%
- IC50 (human PAC1): 720 nM

Compound: Hexanoyl-HSDAVFTDNYTRLR[Orn]QVAAKKYLQSIKNKRYGGPSSGAPPPS [Agonist P307]
- IC50 (human VPAC1): 274 nM
- EC50 (human VPAC2 [1]): 0.32 nM
- IC50 (human VPAC2 [2]): 0.28 nM
- Rat Serum Stability (estimated purity in % after 18 hours) [3]: 0.32%
- IC50 (human PAC1): 293 nM

Compound: Hexanoyl-HSDAVFTDNYTRLRKQVAAKFYLQSIKNKRYGGPSSGAPPPS [Agonist P186]
- IC50 (human VPAC1): 835 nM
- EC50 (human VPAC2 [1]): 0.15 nM
- IC50 (human VPAC2 [2]): 0.87 nM
- Rat Serum Stability (estimated purity in % after 18 hours) [3]: 0.25%
- IC50 (human PAC1): 318 nM

Compound: Hexanoyl-HSDAVFTDNYTRLRKQVAAVKYLQSIKNKRYGGPSSGAPPPS [Agonist P146]
- IC50 (human VPAC1): 401 nM
- EC50 (human VPAC2 [1]): 0.17 nM
- IC50 (human VPAC2 [2]): 0.52 nM
- Rat Serum Stability (estimated purity in % after 18 hours) [3]: 0.53%
- IC50 (human PAC1): 1540 nM

Compound: Hexanoyl-HSDAVFTDNYTRLKKQVAAKKYLQSIKNKRYGGPSSGAPPPS [Agonist P171]
- IC50 (human VPAC1): 174 nM
- EC50 (human VPAC2 [1]): 0.82 nM
- IC50 (human VPAC2 [2]): 5.81 nM
- Rat Serum Stability (estimated purity in % after 18 hours) [3]: 1.78%
- IC50 (human PAC1): 335 nM

Compound: CCCCCC(=O)N[C@@H](Cc1c[nH]cn1)C(=O)N[C@@H](CO)C(=O)N[C@@H](CC(=O)O)C(=O)N[C@@H](C)C(=O)N[C@H](C(=O)N[C@@H](Cc1ccccc1)C(=O)N[C@H](C(=O)N[C@@H](CC(=O)O)C(=O)N[C@@H](CC(N)=O)C(=O)N[C@@H](Cc1ccc(O)cc1)C(=O)N[C@H](C(=O)N[C@@H](CCCNC(=N)N)C(=O)N[C@@H](CC(C)C)C(=O)N[C@@H](CCCNC(=N)N)C(=O)NC(C)(C)C(=O)N[C@@H](CCC(N)=O)C(=O)N[C@H](C(=O)N[C@@H](C)C(=O)N[C@@H](C)C(=O)N[C@@H](CCCCN)C(=O)NC(C)(C)C(=O)N[C@@H](Cc1ccc(O)cc1)C(=O)N[C@@H](CC(C)C)C(=O)N[C@@H](CCC(N)=O)C(=O)N[C@@H](CO)C(=O)N[C@H](C(=O)N[C@@H](CCCCN)C(=O)N[C@@H](CCC(N)=O)C(=O)N[C@@H](CCCCN)C(=O)NCC(=O)NCC(=O)N1CCC[C@H]1C(=O)N[C@@H](CO)C(=O)N[C@@H](CO)C(=O)NCC(=O)N[C@@H](C)C(=O)N1CCC[C@H]1C(=O)N1CCC[C@H]1C(=O)N1CCC[C@H]1C(=O)N[C@@H](CO)C(=O)O)[C@@H](C)CC)C(C)C)[C@@H](C)O)[C@@H](C)O)C(C)C [Agonist P295] (Hexanoyl-HSDAVFTDNYTRLR[Aib]QVAAK[Aib]YLQSIKQKGGPSSGAPPPS-OH; C-terminus assumed)
- IC50 (human VPAC1): > 3000 nM
- EC50 (human VPAC2 [1]): 0.39 nM
- IC50 (human VPAC2 [2]): 0.75 nM
- Rat Serum Stability (estimated purity in % after 18 hours) [3]: 22.22%
- IC50 (human PAC1): > 25000 nM

— patent US20080026996A1, “Selective Vpac2 Receptor Reptide Agonists” (ELI LILLY AND COMPANY, priority 2004, published 2008)
